Positions of bridges follow the written chain, without caps; N, C: chain ends. Residues, ends and D or L forms follow the SMILES beside them.
What was measured:
[1] = tested on: CaCo-2 cells; experiment: ^3H-taurocholate (bile acid) absorption by CaCo-2 monolayer; format: cell-based, human; conditions: for absorption of ^3H-taurocholate (kinetics, FIG. 4): 16-day CaCo-2 monolayers, incubation up to 60 minutes, average of three determinations; for absorption of ^3H-taurocholate (kinetics, FIG. 4) / absorption of ^3H-taurocholate (FIG. 5): 30 min pre-incubation; for absorption of ^3H-taurocholate (FIG. 5): 20-day CaCo-2 cells, 60 minutes with 1 uCi ^3H-taurocholate, quadruplets
Protocol: (§1) CaCo-2, human colon carcinoma cells, were obtained from American Type Culture Collection (ATCC) and cultured in DMEM medium containing 10% fetal bovine serum, 1% penicillin-streptomycin, 2 mM L-glutamine, 1% non-essential-amino acids. Cells were fed fresh medium every third day and grown for 16-21 days to form completely differentiated monolayer. Fully differentiated CaCo-2 cells are known to express high density of GC-C receptors.
Phosphatidyl choline was dissolved in ethanol to make 50 mM stock solution. Calculated volume of the stock solution of phosphatidyl choline was mixed with 3H-taurocholate in a plastic tube and dried under argon gas at 80° C. The dried material was dissolved in transport buffer to get the final concentration of phosphatidyl choline (0.5 mM) and of 3H-taurocholate 10 μCi/mL.
CaCo-2 cells were grown in 24-well plates for 16 days to allow complete monolayer formation and cell differentiation. Completely differentiated monolayers were then pre-incubated with 250 μL of the transport buffer (HEPES 25 mM, NaCl 120 mM, KCl 5.4 mM, CaCl2 1.8 mM and MgSO4, pH 7.5) containing either SP-304 alone or in combination with PDE inhibitors such as IBMX, SS and ZAP. The monolayers were pre-incubated with transport buffer containing either of the following: vehicle (control), 1 mM 8-bromo-cGMP, 500 μM SS, 500 μM ZAP, 1 μM SP-304, 0.1 μM SP-304+500 μM SS and 1 μM SP-304+500 μM ZAP. After the indicated pre-incubation time, 50 μL, of ^3H-taurocholate (1 μCi) cocktail was added and cells were incubated for an additional 60 minutes, washed three times with ice cold PBS. Cells were lysed with 0.5 N NaOH for 4 hours and radioactivity in the lysate was counted in a scintillation counter.
16-day grown monolayers of CaCo-2 cells in 24-well plates were pre-incubated with transport buffer containing the compounds as indicated in the figure for 30 minutes. After the pre-incubation, 1 μCi of ^3H-taurocholate cocktail was added in each well and cells were further incubated for 60 minutes. Cells were washed three times with ice cold PBS and lysed with 0.5 N NaOH and lysates were counted for radioactivity in a scintillation counter. Results are expressed as an average of three determinations. Results on the x-axis were plotted in logarithmic scale.
After the pre-incubation, 1 μCi of ^3H-taurocholate cocktail was added in each well and cells were further incubated for 60 minutes. Cells were washed three times with ice cold PBS and lysed with 0.5 N NaOH and lysates were counted for radioactivity in a scintillation counter. This experiment was run in quadruplets and results are expressed as mean±SD.
The procedure used in this experiment was essentially the same except that a lower concentration of ZAP (250 μM) in combination experiments with SP-304.

[2] = molecular target: T1, GC-C receptors (Homo sapiens, UniProt P25092); experiment: Cyclic GMP stimulation assay in CaCo-2 monolayers (cGMP ELISA); format: cell-based; conditions: for effect of PDE inhibitor on stimulation of cGMP production by SP-304: PDE inhibitor in combination with SP-304, 30 minutes
T1 construct: host or cells: CaCo-2 human colon carcinoma cells, differentiated monolayers grown for 16 days
Protocol: as §1
Biological activity of the GCRA peptides was assayed as previously reported (5). Briefly, 16 days grown monolayers of CaCo-2 cells in 24-well plates were washed twice with 250 μl of DMEM containing 50 mM HEPES (pH 7.4), pre-incubated at 37° C. for 10 min with 250 μl of DMEM containing 50 mM HEPES (pH 7.4) and 1 mM isobutylmethylxanthine (IBMX), followed by incubation with GCRA peptides (0.1 nM to 10 μM) for 30 min. The medium was aspirated, and the reaction was terminated by the addition of 3% perchloric acid. Following centrifugation, and neutralization with 0.1 N NaOH, the supernatant was used directly for measurements of cGMP using an ELISA kit (Caymen Chemical, Ann Arbor, Mich.)
Monolayers were treated […] of serum free DMEM for 30 minutes with either SP-304 alone or in combination with phosphodiesterase inhibitors such as, 3-isobutyl-1-methylxanthine (IBMX), sulindac sulfone (SS) and zaprinast (ZAP). After the incubation, monolayer were lysed with 250 μL of 3% perchloric acid. The lysate was neutralized with 0.1 N NaOH and used for ELISA to determine the concentration of cGMP. The assay procedure was essentially the same as described (5). […] Since CaCo-2 cells overexpress phosphodiesterases (PDE), GC-C agonists are used in combination with PDE inhibitors to measure the actual stimulatory effect of GC-C agonists.

T1 sequence (P25092 24-1073): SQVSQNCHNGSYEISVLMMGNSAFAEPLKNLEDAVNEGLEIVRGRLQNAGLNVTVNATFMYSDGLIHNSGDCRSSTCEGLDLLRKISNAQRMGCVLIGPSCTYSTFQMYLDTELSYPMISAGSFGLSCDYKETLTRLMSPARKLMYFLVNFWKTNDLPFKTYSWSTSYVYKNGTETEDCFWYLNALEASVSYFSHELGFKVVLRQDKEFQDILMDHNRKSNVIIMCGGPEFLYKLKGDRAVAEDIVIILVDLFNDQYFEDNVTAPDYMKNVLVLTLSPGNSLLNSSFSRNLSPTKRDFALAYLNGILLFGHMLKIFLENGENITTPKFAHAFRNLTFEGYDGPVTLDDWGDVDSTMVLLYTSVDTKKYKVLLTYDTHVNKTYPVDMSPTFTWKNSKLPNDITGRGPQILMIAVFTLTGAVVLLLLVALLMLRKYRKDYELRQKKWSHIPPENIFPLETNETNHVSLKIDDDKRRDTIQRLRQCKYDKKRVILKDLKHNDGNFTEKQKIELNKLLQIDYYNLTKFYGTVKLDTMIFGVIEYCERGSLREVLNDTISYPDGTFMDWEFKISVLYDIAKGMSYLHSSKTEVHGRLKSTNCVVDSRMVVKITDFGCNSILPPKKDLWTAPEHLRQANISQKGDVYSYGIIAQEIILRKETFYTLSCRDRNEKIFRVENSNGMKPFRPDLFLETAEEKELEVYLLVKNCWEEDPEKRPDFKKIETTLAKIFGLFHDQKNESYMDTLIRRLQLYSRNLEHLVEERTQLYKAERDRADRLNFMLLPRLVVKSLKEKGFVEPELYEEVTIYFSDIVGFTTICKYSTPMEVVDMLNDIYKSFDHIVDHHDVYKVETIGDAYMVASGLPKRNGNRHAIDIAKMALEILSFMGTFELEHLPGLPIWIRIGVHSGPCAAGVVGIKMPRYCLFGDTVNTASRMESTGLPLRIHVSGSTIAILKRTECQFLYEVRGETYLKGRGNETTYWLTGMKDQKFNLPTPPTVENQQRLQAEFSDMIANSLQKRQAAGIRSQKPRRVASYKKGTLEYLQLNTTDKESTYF

Row | effect of PDE inhibitor on stimulation of cGMP production by SP-304 [2] | SMILES | absorption of ^3H-taurocholate (kinetics, FIG. 4) [1] | absorption of ^3H-taurocholate (FIG. 5) [1] | further results
1 | synergistic effects | CC(C)Cn1c(=O)n(C)c(=O)c2[nH]cnc21 [IBMX, 3-isobutyl-1-methylxanthine] | – | – | –
2 | synergistic effects | CC1=C(CC(=O)O)c2cc(F)ccc2/C1=C\c1ccc(S(C)(=O)=O)cc1 [SS, sulindac sulfone] | – | – | –

The remaining lines, values behind:

Row | SMILES | effect of PDE inhibitor on stimulation of cGMP production by SP-304 [2] | absorption of ^3H-taurocholate (kinetics, FIG. 4) [1] | absorption of ^3H-taurocholate (FIG. 5) [1] | further results
3 | Nc1nc2c(nc(Br)n2[C@@H]2O[C@@H]3COP(=O)(O)O[C@H]3[C@H]2O)c(=O)[nH]1 [8-Br-cGMP, 8-bromo-cGMP] | – | inhibited | inhibited | –
4 | CC(C)C[C@H](NC(=O)[C@@H]1CSSC[C@@H]2NC(=O)[C@H](CC(C)C)NC(=O)[C@H](CCC(=O)O)NC(=O)[C@@H](NC(=O)[C@H](CCC(=O)O)NC(=O)[C@H](CC(=O)O)NC(=O)[C@@H](N)CC(N)=O)CSSC[C@H](NC(=O)[C@H](C)NC(=O)[C@H](C(C)C)NC(=O)[C@H](CC(N)=O)NC(=O)[C@H](C(C)C)NC2=O)C(=O)N[C@@H]([C@@H](C)O)C(=O)NCC(=O)N1)C(=O)O [SP-304, Asn^1-Asp^2-Glu^3-Cys^4-Glu^5-Leu^6-Cys^7-Val^8-Asn^9-Val^10-Ala^11-Cys^12-Thr^13-Gly^14-Cys^15-Leu^16] (H-NDECELCVNVACTGCL-OH; disulfide 4-12, 7-15; N-terminus assumed) | – | inhibited | inhibited | cGMP production by CaCo-2 cells in response to stimulation ([2]; serum free DMEM, 30 minutes, cGMP by ELISA): produced cGMP in response to stimulation; inhibition in absorption of ^3H-taurocholate (FIG. 6), SP-304 alone ([1]; SP-304 0.1 uM alone): did not produce much inhibition; inhibition of ^3H-taurocholate absorption (FIG. 6), SP-304 in combination with ZAP ([1]; SP-304 0.1 uM in combination with ZAP 250 uM, compared with SP-304 alone): greater effect on inhibition
5 | CCCOc1ccccc1-c1nc2nn[nH]c2c(=O)[nH]1 [ZAP, zaprinast] | synergistic effects | – | – | cGMP production among the PDE inhibitors combined with SP-304 ([2]; comparison of IBMX, SS and ZAP): maximum production of cGMP

Source: patent US9814752B2, “Agonists of guanylate cyclase useful for the treatment of hypercholesterolemia, atherosclerosis, coronary heart disease, gallstone, obesity and other cardiovascular diseases” (SYNERGY PHARMACEUTICALS, INC., priority 2007, dated 2017)
